Assay results taken from publication PMC5773577, “Novel Miniature Membrane Active Lipopeptidomimetics against Planktonic and Biofilm Embedded Methicillin-Resistant Staphylococcus aureus” (Scientific Reports, 2018).
Values after ≈ are worked out from the molar mass of the structure shown. Where two headings read alike, the source gives them in different places. Non-standard residues stand in square brackets, D forms with d. Residues, ends and D or L forms follow the SMILES beside them. No end group written: not given here. d1Nal = N[C@H](Cc1cccc2ccccc12)C(=O)O; 12Ado = NCCCCCCCCCCCC(=O)O; Aoc = NCCCCCCCC(=O)O

Columns and labels:
[1] = test system: S. aureus (ISP479R); format: cell-based, Staphylococcus aureus; conditions: MHB, 2–5 × 10^5 CFU/mL, 16–18 h, 37 °C, OD600
Procedure: (§1) The antibacterial activity was evaluated as MIC using slight modifications to a serial broth micro dilution method as reported previously[66],[67]. Briefly, to each treatment well of the 96-well plate (Corning Incorporated, USA) 10 μL of peptidomimetic/antibiotic was added and subsequently diluted serial 2-fold in 0.2% BSA (in 0.01% acetic acid). Then to each well of the first 11 columns 100 μL of mid-log phase bacterial suspension in MHB medium was added to get 2–5 × 10^5 CFU/mL. Cultures without test peptidomimetics/antibiotics were used as growth control. Uninoculated MHB medium was used as negative control. The microtitre plates were incubated overnight with agitation (180 rpm) at 37 °C. After 16–18 h incubation, absorbance was read at 600 nm using an ELISA plate reader (Molecular Devices, Sunnyvale, CA, USA). The experiments were carried out in duplicate on at least three different days.

[2] = test system: MRSA (ATCC 33591); assay: microbe, parasite or virus in culture; format: cell-based, Staphylococcus aureus; conditions: MHB, 2–5 × 10^5 CFU/mL, 16–18 h, 37 °C, OD600
Procedure: as §1

[3] = test system: MRSA (ATCC 43300); assay: microbe, parasite or virus in culture; format: cell-based, Staphylococcus aureus; conditions: MHB, 2–5 × 10^5 CFU/mL, 16–18 h, 37 °C, OD600
Procedure: as §1

[4] = test system: S. aureus (ATCC 29213); assay: microbe, parasite or virus in culture; format: cell-based, Staphylococcus aureus; conditions: MHB, 2–5 × 10^5 CFU/mL, 16–18 h, 37 °C, OD600, duplicate, at least three days
Procedure: as §1

[5] = test system: S. aureus (ISP479C); assay: microbe, parasite or virus in culture; format: cell-based, Staphylococcus aureus; conditions: MHB, 2–5 × 10^5 CFU/mL, 16–18 h, 37 °C, OD600
Procedure: as §1

[6] = test system: Methicillin-resistant S. epidermidis (ATCC 35984); assay: microbe, parasite or virus in culture; format: cell-based, Staphylococcus epidermidis; conditions: MRSE ATCC 35984; MHB, 2–5 × 10^5 CFU/mL, 16–18 h, 37 °C, OD600
Procedure: as §1

[7] = test system: E. faecium (E-447), clinical isolate of vancomycin-resistant E. faecium; assay: organism not typed; format: cell-based, Enterococcus faecium; conditions: VRE clinical isolate E-447; MHB, 2–5 × 10^5 CFU/mL, 16–18 h, 37 °C
Procedure: as §1

[8] = test system: E. faecium (E-7846), clinical isolate of vancomycin-resistant E. faecium; assay: organism not typed; format: cell-based, Enterococcus faecium; conditions: VRE clinical isolate E-7846; MHB, 2–5 × 10^5 CFU/mL, 16–18 h, 37 °C
Procedure: as §1

[9] = test system: Escherichia coli (ATCC 11775); format: cell-based
Procedure: as §1

[10] = test system: MRSA ATCC 33591; assay: microbe, parasite or virus in culture; format: cell-based, Staphylococcus aureus
Procedure: An initial inoculum of mid-log phase 10^7 CFU/mL was used and MIC experiment was performed as described earlier. For serum/plasma stability assay a method as described previously was used with slight modifications. Briefly, 50 μL MHB medium containing desired concentration of test peptidomimetics was incubated with 50 µL mice plasma/fetal bovine serum for 3 h at 37 °C. After incubation, a 10 μL aliquot was taken out for MIC determination as described above. For the experiment, mid-log phase 2–5 × 10^5 CFU/mL were used as initial inoculum. For the growth control wells, an equivalent amount of plasma/FBS in the medium was also added to evaluate their effect on the viability of cells. A slight decrease in OD600 of cells incubated with mice plasma was observed compared to untreated growth control in MHB alone. The experiments were repeated on two different days and reproducible MIC values were observed.

[11] = test system: 3T3 murine fibroblast cell line; assay: Cytotoxicity, MTT assay; format: cell-based; conditions: 3T3 fibroblasts, 2 h, DMEM with 10% FBS, mean ± S.D., triplicate on two days
Procedure: For the active peptidomimetics cytotoxicity was measured against 3T3 murine fibroblast cell line using a previously defined MTT assay with slight modifications. Briefly, the cells were grown to over 75% confluence in DMEM supplemented with 10% FBS and antibiotics (1 × Anti-anti) at 37 °C in 5% CO2 atmosphere. The cells were transferred to a 24-well plate to a final count of ~8 × 10^4 cells/well. […] The plates were kept for 2 h at 37 °C in 5% CO2 incubator. After 2 h, the cells were washed once with 1 mL PBS. Then 1 mL MTT (0.1 mg/mL) was added to each well in dark and incubated for 2 h at 37 °C in 5% CO2. After 2 h, 200 μL of DMSO was added to the wells to dissolve the formazan crystals formed and the plates were kept for 5 min in the incubator at 37 °C. 100 μL of the suspension was transferred to a fresh 96-well plate and absorbance (Asample) was measured at 570 nm in an ELISA plate reader (Molecular Devices, Sunnyvale, CA, USA). The wells with DMSO treatment were set as untreated control (Auntreated control). The assay was done in triplicate on two different days. The % survival was calculated using the following equation:2 %survival=[Asample/Auntreatedcontrol]×100

[12] = test system: mouse red blood cells (RBCs); assay: Hemolysis assay; format: cell-based; conditions: mouse RBC, up to 250 μg/mL, 1 h, 37 °C, PBS pH 7.4; 0.1% Triton X-100 = 100%; data not shown
Procedure: For the experiment, a previously defined procedure was used with slight modifications[67],[68]. Briefly, blood was withdrawn from mice on the day of the experiment. After washing red blood cells (RBC) twice with phosphate buffer saline (PBS: 35 mM sodium phosphate, 150 mM NaCl, pH 7.4), a 4% v/v suspension of RBC was prepared in the same buffer. In a 96-well plate, serial two-fold dilutions of desired concentrations of peptidomimetics (in PBS) were prepared (100 μL) in duplicate. To each well 100 μL of 4% v/v RBC suspension was added. The plates were incubated at 37 °C for 1 h. After 1 h, the plates were centrifuged at 1500 rpm for 10 min and 20 μL of the supernatant was transferred to a fresh 96-well plate containing 80 μL PBS. The hemoglobin release was quantified by measuring OD414 in an ELISA plate reader (Molecular Devices, Sunnyvale, CA, USA). Hemoglobin release from 0.1% Triton X-100 treated RBC was set as 100% lysis (Amax) while as negative control RBC suspended in PBS alone was used (APBS). Percentage hemolysis was calculated using the following equation:1 %hemolysis=[(Asample−APBS)/(Amax−APBS)]×100

[13] = test system: MRSA ATCC 33591; assay: Resistance development over 17 serial passages at sub-MIC; format: cell-based, Staphylococcus aureus; conditions: for MIC: Staphylococcus aureus
Procedure: For the experiment, a method as described previously was used with slight modifications. Briefly, for the experiment, on day 1 the initial MICs of all test agents were determined using routine MIC experiment protocol as described earlier. Next day, bacterial cells (100 μL) from the wells with concentrations 2–4 fold less than the MIC value for each test agent were used to set up fresh mid-log phase cultures in MHB medium for setting up the MIC plate. This was repeated for a total of 17 sub-lethal treatments with each antimicrobial agent. For every passage, corresponding glycerol stocks (15% v/v) were made for each culture and were kept at −80 °C for future use.

[14] = MRSA ATCC 33591, initial inoculum 10^7 CFU/mL, mid-log phase

Row | Compound | Minimum inhibitory concentration, MIC [1] | Minimum inhibitory concentration, MIC [3] | Minimum inhibitory concentration, MIC [5] | Minimum inhibitory concentration, MIC [6] | Minimum inhibitory concentration, MIC [8] | MIC [9] | % viable cells relative to untreated control (MTT) ([11]; 10× MIC) | % viable cells relative to untreated control (MTT) ([11]; 20 × MIC) | % hemolysis [12] | further results
1 | N=C(N)NCCC[C@H](NC(=O)CCCCCCCCCCCNC(=O)[C@H](CCCNC(=N)N)NC(=O)[C@@H](N)Cc1c[nH]c2ccccc12)C(=O)N[C@@H](Cc1c[nH]c2ccccc12)C(N)=O [S-6, Trp-Arg-(12-ADO)-Arg-Trp-CONH2] (HELM PEPTIDE1{W.R.[O=C(CCCCCCCCCCCN[*:1])[*:2]].R.W.[am]}$$$$V2.0) | 11.3 mg/L (≈ 12.6 µM) | 11.3 mg/L (≈ 12.6 µM) | 11.3 mg/L (≈ 12.6 µM) | 11.3 mg/L (≈ 12.6 µM) | 11.3 mg/L (≈ 12.6 µM) | > 45.4 mg/L | no decrease in cell viability | no decrease in cell viability |  | Minimum inhibitory concentration, MIC [2]: 11.3 mg/L (≈ 12.6 µM); Minimum inhibitory concentration, MIC [4]: 11.3 mg/L (≈ 12.6 µM); Minimum inhibitory concentration, MIC [7]: 11.3 mg/L (≈ 12.6 µM); Minimum inhibitory concentration, MIC ([10]; ATCC 33591, 3 h): 22.7 mg/L (≈ 25.2 µM); Minimum inhibitory concentration, MIC [10, 14]: 11.3 mg/L (≈ 12.6 µM)
2 | N=C(N)NCCC[C@H](NC(=O)[C@@H](Cc1cccc2ccccc12)NC(=O)CCCCCCCCCCCNC(=O)[C@@H](Cc1cccc2ccccc12)NC(=O)[C@@H](N)CCCNC(=N)N)C(N)=O [S-8, Arg-(D-1-Nal)-(12-ADO)-(D-1-Nal)-Arg-CONH2] (H-R[d1Nal][12Ado][d1Nal]R-NH2) | 0.7 mg/L (≈ 0.76 µM) | 1.4 mg/L (≈ 1.52 µM) |  | 1.4 mg/L (≈ 1.52 µM) | 5.6 mg/L (≈ 6.08 µM) | 5.6 mg/L (≈ 6.08 µM) | 84.8 ± 5.6% | 81.1 ± 2.9% |  | 
3 | WRWRW-NH2 [S-1, Trp-Arg-Trp-Arg-Trp-CONH2] |  |  |  |  |  |  |  |  | < 5% | 
4 | O=C(O)c1cn(C2CC2)c2cc(N3CCNCC3)c(F)cc2c1=O [CIP, Ciprofloxacin] |  |  |  |  |  |  |  |  |  | MIC ([13]; read-out: final MIC): 11.3 mg/L (≈ 34.1 µM); MIC ([13]; read-out: initial MIC): 0.17 mg/L (≈ 0.513 µM); fold increase in MIC ([13]; at 6th passage): ~16 fold; fold increase in MIC ([13]; over 17 passages (final MIC / initial MIC)): 66.8 fold
5 | N=C(N)NCCC[C@H](NC(=O)[C@@H](Cc1cccc2ccccc12)NC(=O)CCCCCCCNC(=O)[C@@H](Cc1cccc2ccccc12)NC(=O)[C@@H](N)CCCNC(=N)N)C(N)=O [S-9, Arg-(D-1-Nal)-(8-AOA)-(D-1-Nal)-Arg-CONH2] (H-R[d1Nal][Aoc][d1Nal]R-NH2) | 45.4 mg/L (≈ 52.5 µM) | >45.4 mg/L | 45.4 mg/L (≈ 52.5 µM) | 45.4 mg/L (≈ 52.5 µM) |  |  |  |  | < 5% | 
6 | N=C(N)NCCC[C@H](NC(=O)[C@@H](N)Cc1c[nH]c2ccccc12)C(=O)N[C@H](Cc1cccc2ccccc12)C(=O)N[C@@H](CCCNC(=N)N)C(=O)N[C@@H](Cc1c[nH]c2ccccc12)C(N)=O [S-3, Trp-Arg-(D-1-Nal)-Arg-Trp-CONH2] (HELM PEPTIDE1{W.R.[O=C([C@@H](Cc1cccc2ccccc12)N[*:1])[*:2]].R.W.[am]}$$$$V2.0) |  |  |  |  |  |  |  |  | < 5% | 
7 | N=C(N)NCCC[C@H](NC(=O)[C@H](Cc1c[nH]c2ccccc12)NC(=O)CCCCCCCCCCCNC(=O)[C@H](Cc1c[nH]c2ccccc12)NC(=O)[C@@H](N)CCCNC(=N)N)C(N)=O [S-7, Arg-Trp-(12-ADO)-Trp-Arg-CONH2] (HELM PEPTIDE1{R.W.[O=C(CCCCCCCCCCCN[*:1])[*:2]].W.R.[am]}$$$$V2.0) | 11.3 mg/L (≈ 12.6 µM) | 11.3 mg/L (≈ 12.6 µM) | 11.3 mg/L (≈ 12.6 µM) | 11.3 mg/L (≈ 12.6 µM) | 5.6 mg/L (≈ 6.23 µM) | > 45.4 mg/L | no decrease in cell viability | no decrease in cell viability |  | Minimum inhibitory concentration, MIC [2]: 11.3 mg/L (≈ 12.6 µM); Minimum inhibitory concentration, MIC [4]: 11.3 mg/L (≈ 12.6 µM); Minimum inhibitory concentration, MIC [7]: 11.3 mg/L (≈ 12.6 µM); Minimum inhibitory concentration, MIC ([10]; ATCC 33591, 3 h): 22.7 mg/L (≈ 25.2 µM); Minimum inhibitory concentration, MIC ([10]; MRSA ATCC 33591, after 3 h pre-incubation at 37 °C with mice plasma (50%, v/v), inoculum 2–5 × 10^5 CFU/mL, repeated on two days): >45.4 mg/L; Minimum inhibitory concentration, MIC [10, 14]: 11.3 mg/L (≈ 12.6 µM)
8 | N=C(N)NCCC[C@H](NC(=O)[C@@H](N)Cc1c[nH]c2ccccc12)C(=O)N[C@H](Cc1ccccc1C(F)(F)F)C(=O)N[C@@H](CCCNC(=N)N)C(=O)N[C@@H](Cc1c[nH]c2ccccc12)C(N)=O [S-2, Trp-Arg-(2-trifluoromethyl-D-Phe)-Arg-Trp-CONH2] (HELM PEPTIDE1{W.R.[O=C([C@@H](Cc1ccccc1C(F)(F)F)N[*:1])[*:2]].R.W.[am]}$$$$V2.0) |  |  |  |  |  |  |  |  | < 5% | 
9 | N=C(N)NCCC[C@H](NC(=O)CCCCCCCNC(=O)[C@H](CCCNC(=N)N)NC(=O)[C@@H](N)Cc1c[nH]c2ccccc12)C(=O)N[C@@H](Cc1c[nH]c2ccccc12)C(N)=O [S-5, Trp-Arg-(8-AOA)-Arg-Trp-CONH2] (HELM PEPTIDE1{W.R.[O=C(CCCCCCCN[*:1])[*:2]].R.W.[am]}$$$$V2.0) |  |  |  |  |  |  |  |  | < 5% | 
